# In PMC10065799, “High-throughput profiling of sequence recognition by tyrosine kinases and SH2 domains using bacterial peptide display” (eLife, 2023):
# Assays:
# c-Src kinase domain = c-Src kinase domain (Homo sapiens, UniProt P12931); test: pTyr-Var library bacterial peptide display kinase screen (enrichment scores); format: biochemical
# Fyn kinase domain = test: as above; format: biochemical, human
# Hck kinase domain = test: as above; format: biochemical, human
# c-Abl kinase domain = molecular target: T1, c-Abl kinase domain (Mus musculus, UniProt P00520); test: as above; format: biochemical
# T1 sequence (P00520 242-493 limits assumed): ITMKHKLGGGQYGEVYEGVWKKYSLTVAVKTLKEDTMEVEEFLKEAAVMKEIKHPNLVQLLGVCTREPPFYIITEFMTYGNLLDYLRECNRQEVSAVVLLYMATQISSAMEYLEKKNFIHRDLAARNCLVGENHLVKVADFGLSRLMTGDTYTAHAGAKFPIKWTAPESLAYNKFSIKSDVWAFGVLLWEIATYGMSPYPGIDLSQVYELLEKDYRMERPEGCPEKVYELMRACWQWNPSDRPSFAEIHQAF
# Jak2 = test: as above; format: biochemical, human
# AncSZ kinase domain = test: as above; format: biochemical
# Fer kinase domain = test: as above; format: biochemical, mouse
# Fes = test: as above; format: biochemical; settings: mean of log2 of enrichment over R1-R6
# FGFR1 kinase domain = test: as above; format: biochemical, human
# FGFR3 kinase domain = test: as above; format: biochemical, human
# EPHB1 kinase domain = test: as above; format: biochemical, human
# EPHB2 kinase domain = test: as above; format: biochemical, human
# MERTK kinase domain = test: as above; format: biochemical, human
# [1] = system: 4G10 Platinum pan-phosphotyrosine antibody; test: Phosphorylated pTyr-Var library selection with biotinylated pan-phosphotyrosine antibody; format: binding, mouse; settings: enrichment score, sheet SH2-vs-peptide
# c-Src SH2 domain = c-Src SH2 domain (Homo sapiens, UniProt P12931); test: pTyr-Var library SH2 domain screen with SH2-dynabeads (enrichment scores)
# SHP2 C-SH2 domain = test: as above
# Grb2 SH2 domain = test: as above
# [2] = mean of log2 of enrichment over R1-R4
# [3] = pTyr-Var library, enrichment score, replicate 1
# [4] = pTyr-Var library, enrichment score, replicate 3
# [5] = pTyr-Var library, enrichment score, replicate 4
# [6] = mean of log2 enrichment of reference peptide, n = 5
# [7] = pTyr-Var library, reference peptide enrichment, mean of n = 5
# [8] = mean of log2 enrichment of reference peptide, n = 4
# [9] = pTyr-Var library, reference peptide enrichment, mean of n = 4
sequence,measurement,setting,value
ATVLNYLPKCI [A2M_Y817],c-Src mean of log2(enrichment),c-Src kinase domain; [2],-1.394
same,c-Src enrich. R1,c-Src kinase domain; [3],0.4801
same,c-Src enrich. R3,c-Src kinase domain; [4],0.3246
same,c-Src enrich. R4,c-Src kinase domain; [5],0.3798
same,Fyn mean of log2(enrichment),Fyn kinase domain; [2],-1.219
same,Fyn enrich. R1,Fyn kinase domain; [3],0.5501
same,Fyn enrich. R3,Fyn kinase domain; [4],0.3301
same,Fyn enrich. R4,Fyn kinase domain; [5],0.4584
same,Hck mean of log2(enrichment),"Hck kinase domain; mean of log2(variant) / mean of log2(reference), R1-R4",0.599
same,Hck enrich. R1,Hck kinase domain; [3],0.4967
same,Hck enrich. R3,Hck kinase domain; [4],0.9831
same,Hck enrich. R4,Hck kinase domain; [5],0.3063
same,c-Abl mean of log2(enrichment),c-Abl kinase domain; [2],-0.5355
same,c-Abl enrich. R1,c-Abl kinase domain; [3],0.4542
same,c-Abl enrich. R3,c-Abl kinase domain; [4],0.6528
same,c-Abl enrich. R4,c-Abl kinase domain; [5],0.8371
same,Jak2 mean of log2(enrichment),Jak2; mean of log2 of enrichment over R1-R3,-0.2312
same,Jak2 enrich. R1,Jak2; [3],0.7671
same,Jak2 enrich. R3,Jak2; [4],0.8013
same,AncSZ mean of log2(enrichment),AncSZ kinase domain; mean of log2 of enrichment over R1-R5,-0.4662
same,AncSZ enrich. R1,AncSZ kinase domain; [3],0.5771
same,AncSZ enrich. R3,AncSZ kinase domain; [4],0.5974
same,AncSZ enrich. R4,AncSZ kinase domain; [5],1.037
same,AncSZ enrich. R5,"AncSZ kinase domain; pTyr-Var library, enrichment score, replicate 5",0.9242
same,Fer mean of log2(enrichment),Fer kinase domain; [2],-1.275
same,Fer enrich. R1,Fer kinase domain; [3],0.6179
same,Fer enrich. R3,Fer kinase domain; [4],0.5252
same,Fer enrich. R4,Fer kinase domain; [5],0.2478
same,Fes mean of log2(enrichment),Fes,-0.04028
same,mean of log2(reference),FGFR1 kinase domain; [6],-0.9981
same,ref. mean,FGFR1 kinase domain; [7],0.5192
same,mean of log2(reference),FGFR3 kinase domain; [6],-0.6609
same,ref. mean,FGFR3 kinase domain; [7],0.649
same,mean of log2(reference),EPHB1 kinase domain; [8],-0.6057
same,ref. mean,EPHB1 kinase domain; [9],0.6623
same,mean of log2(reference),EPHB2 kinase domain; [8],-0.8971
same,ref. mean,EPHB2 kinase domain; [9],0.5418
same,mean of log2(reference),MERTK kinase domain; [8],-1.427
same,ref. mean,MERTK kinase domain; [9],0.3924
same,4G10 (mean),[1],0.6373
same,c-Src (mean),"c-Src SH2 domain; enrichment score, phosphorylated pTyr-Var library, sheet SH2-vs-peptide, mean",0.535
same,mean of log2(reference),"c-Src SH2 domain; mean of log2 enrichment of reference peptide, R1-R3, sheet c-Src",-0.9781
same,ref. mean,"c-Src SH2 domain; reference peptide, mean of R1-R3, sheet c-Src",0.535
same,mean of log2(reference),"SHP2 C-SH2 domain; SHP2-C SH2, mean of log2 enrichment of reference, R1-R3",-0.4562
same,ref. mean,"SHP2 C-SH2 domain; reference peptide enrichment score, SHP2-C SH2, mean of R1-R3",0.736
same,mean of log2(reference),"Grb2 SH2 domain; Grb2 SH2, mean of log2 enrichment of reference, R1-R3",-0.1568
same,ref. mean,"Grb2 SH2 domain; reference peptide enrichment score, Grb2 SH2, mean of R1-R3",0.8993
